The values below come from patent publication EP2077274A1, “Synthetic analogs of human beta-defensins having antimicrobial, antiviral and chemotactic activity” (Ceinge Biotecnologie Avanzate s.c. a r.l., priority 2008, dated 2009).

No end group written: not given here.

Test [1] deals with Enterococcus faecalis ATCC 29212. The experiment in a line: Colony-forming unit (CFU) assay of antibacterial activity with NaCl dependence. As to conditions: for antibacterial activity at 200 mM NaCl: p<0.001 versus hBD3 in the same conditions; for antibacterial activity, inhibition by NaCl: 50 mM NaCl. Format: cell-based. The protocol:
(§1) Colony-forming unit (CFU) assay of the antibacterial activity of the peptides against P.aeruginosa ATCC (American Type Culture Collection, Manassas, VA, USA) 27853, Enterococcus faecalis ATCC 29212 and Escherichia coli ATCC 25922 was performed. The strains were grown in aerobic conditions in tryptic soy broth (Difco Laboratories, Detroit, MI, USA) at 37°C. Cells from exponential-phase cultures were centrifuged, washed and suspended to a density of 1 x 10^5 CFU/mL in sterile 10 mM potassium phosphate buffer, pH 7.4, and incubated in the presence of the peptides. The incubation time was 2 h at 37°C. […] For salt dependence assay, NaCl in a range of concentrations potentially present in the airway surface fluid of normal subjects and CF patients (33), i.e., 0, 50, 100 and 200 mM NaCl, were included in the incubation buffer. The cells were then diluted serially in the same buffer, spread on tryptone-yeast (Difco Laboratories) plates and the colonies were counted after 18 h at 37°C. Each assay was performed in triplicate. Bactericidal activity (mean and SD of three assays) is expressed as the ratio between colonies counted and the number of colonies on a control plate.

The test system of test [2] is Escherichia coli ATCC 25922. The description is as above. The test is classed as cell-based. To be noted: for antibacterial activity at 200 mM NaCl: p<0.001 versus hBD3 in the same conditions; for antibacterial activity, inhibition by NaCl: 50 mM NaCl. As for the experimental part: as §1
In a further test the test system is P.aeruginosa ATCC 27853. The description is as above. The test is classed as cell-based. As to conditions: for antibacterial activity at 200 mM NaCl: p<0.001 versus hBD3 in the same conditions; for antibacterial activity, inhibition by NaCl: 50 mM NaCl. The protocol:
as §1

For a further test, the system named is monocytes. The experiment in a line: Chemotaxis assay (leukocyte migration, calcein fluorescence). To be noted: for chemotactic activity compared to wild-type hBD1: peptide 1.25 µM. Format: cell-based, human. The protocol:
(§2) Preparation of leukocytes-Monocytes and neutrophils were isolated as described in the StemSep Cell Technical Manual (Stem Cell Technologies, Vancouver, Canada). Briefly, to obtain neutrophils, buffy coats were diluted 1:20 in NH4Cl supplemented with 2 mM EDTA and incubated on ice for 20 min. Cell suspensions were centrifuged for 10 min at 600 X g at room temperature with the brake off and washed three times with phosphate buffered saline (PBS) supplemented with 2% foetal bovine serum and 2 mM EDTA. Cell viability was assessed by analysis of light scatter properties, and cell count was performed using a logical gate strategy based on Trucount tubes (Becton-Dickinson, San Jose, CA, USA). Neutrophils were purified from lysed buffy coats using StemSep negative selection system. To this purpose, 100x10^6 mononuclear cells from lysed buffy coats were incubated with 100 µL of custom antibody cocktail for human granulocytes enrichment (Stem Cell Technologies) for 45 min on ice. In addition, cell suspensions were incubated with 60 µL of magnetic colloid for 30 minutes on ice. Finally, the samples were run through a 0.3-inch column matrix in a negative selection system in which the unwanted cells were immunomagnetically labelled and bound to the magnetic column. Neutrophils, after the separation, were collected in the column flowthrough without antibody bound to their surface. In order to obtain monocytes, human buffy coats were layered over a Ficoll-Paque density gradient and spun at 600 X g for 30 min with the brake off. The mononuclear cell-rich fractions were washed three times with PBS supplemented with 2% foetal bovine serum (FBS) and 2 mM EDTA. Cell viability was assessed by analysis of light scatter properties, and cell count was performed using a logical gate strategy based on Trucount tubes (Becton-Dickinson). A custom antibody cocktail for human monocyte enrichment (Stem Cells Technologies) was used for immunomagnetic negative selection of monocytes. Mononuclear cells were incubated as above described for neutrophils. Both neutrophils and monocytes were resuspended in 5.0 mL of RPMI-1640 (Sigma-Aldrich, St Louis, MO, USA) without phenol red containing 10% heat-treated FBS. Calcein AM (Molecular Probes, Eugene, OR, USA) was added to the cell suspensions (5.0 mL) at a concentration of 5 µg/mL and the cells were incubated for 30 min at 37°C. Cell suspensions were washed twice with PBS and then resuspended in RPMI-FBS to the desired concentration.
(§3) Measurement of leukocytes migration-The chemotaxis assay of monocytes and neutrophils (90-95% of purity) was performed in 96-well disposable chemotaxis chambers (Neuroprobe, Gaithersburg, MD, USA) using polyvinyl-pyrrolidone-free polycarbonate membranes with an […] pore size for monocytes and with a […] pore size for neutrophils. Chemotaxis was measured by fluorescence detection, using the calcein fluorescence signal. The fluorescence was read in a microplate fluorescence reader (Victor 3 1420 Multilabel Counter, Perkin Elmer) with excitation/emission wave-length settings of 485/530 nm. We calculated the migration index as the ratio between the sample mean fluorescence (after subtraction of the negative control mean fluorescence)/positive control mean fluorescence. Each assay was performed in quadruplicate.

The next test has as its system neutrophils. The test is described as above. Format: cell-based, human. As to conditions: for chemotactic activity compared to wild-type hBD1: peptide 1.25 µM. The protocol:
as §2, §3

For another test, the system named is HSV-1. The experiment in a line: HSV-1 infectivity plaque assay on Vero cell monolayers (co-exposure, virus pre-treatment, cell pre-exposure). The test is classed as cell-based. As to conditions: for % of infectivity: peptide 20 µM, mean and SD of 3 replicates; for inhibition of HSV infectivity: peptide 50 µM, reduced form. The protocol:
Vero cells were grown in Dulbecco's modified Eagle's medium (DMEM) supplemented with 10% foetal calf serum. HSV-1 carrying a IacZ gene driven by the cytomegalovirus (CMV) IE-1 promoter to express beta-galactosidase was propagated as described (33). Peptides were dissolved in DMEM with serum and used at different concentrations. All experiments were conducted in parallel with scrambled peptides and no-peptide controls. […] Non-penetrated viruses were inactivated by citrate buffer at pH 3.0 after the 45 min incubation with cells at 37°C. The cells were then incubated for 48 h at 37°C in DMEM supplemented with carboxymethylcellulose (CMC). Monolayers were fixed, stained with 5-bromo-4-chloro-3-indolyl-beta-D-galactopyranoside (X-gal) and plaque numbers were scored. Experiments were performed in triplicate and the percentage of inhibition was calculated with respect to no-peptide control experiments. ii) For "virus pre-treatment" experiments, approximately 2 x 10^4 plaque forming units (PFU) of HSV-1 were incubated in the presence of 20 µM of peptides for 45 min at 37°C, then titrated on Vero cell monolayers. iii) For "cell pre-exposure" experiments, Vero cells were incubated with 20 µM of peptides for 30 min at 4°C. Peptides were removed, and cells were washed with phosphate-buffered saline before being infected with serial dilutions of HSV-1 and incubated for 45 min at 37°C.
Monolayers were exposed to different concentrations (10, 50, 100, 250 and 500 µM) of each peptide for 24 h, and cell viability was evaluated with the LDH assay. There was no significant difference between the viability of cells exposed to the peptides and that of cells exposed to control (data not shown). Thus, we evaluated the antiviral activity of wild type peptides and their analogs in: co-exposure experiments (cell + virus + peptide at zero time); virus pre-treatment (virus + peptide incubation before cell infection); and cell pre-exposure (cell + peptide incubation before virus infection). This would allow to evaluate if, and in which phase, the peptides could inhibit the virus infectivity.
For co-exposure experiments, we incubated the peptides on the monolayers of Vero cells together with the virus inoculum for 45 min before low pH treatment. The reduced form of wild-type hBD1 and hBD3 and analogs 1C, 1 N, 3C, 3N were used in all subsequent experiments. […] No control (peptide excluded) inhibited HSV-1 infectivity under similar experimental conditions.

[3] abbreviates: 200 mM NaCl compared to absence of salt.
Setting [4] is: NaCl between 100 and 150 mM, p<0.001.
The mark [5] stands for this setting: peptide 12.5 µM, 200 mM NaCl, p<0.01.

Consider “GIINTLQKYYCRVRGGRCAVLSCLPKEEQIGKCSTRGRKCCRRKK-OH (cysteines drawn unpaired) [hBD3 wt, reference compound]”, for which the “antibacterial activity, effect of NaCl” value is on record as “significantly inhibited” in test [1] (setting [3]); “significantly inhibited” in test [2] (setting [3]); “unaffected” in the test on P.aeruginosa ATCC 27853 (peptide 2.5 µM, 50 mM NaCl versus 0 mM NaCl); “slightly inhibited” in the test on P.aeruginosa ATCC 27853 (peptide 2.5 µM, 100 mM NaCl versus 0 mM NaCl, p<0.01); “greatly inhibited” in the test on P.aeruginosa ATCC 27853 (peptide 2.5 µM, 200 mM NaCl versus 0 mM NaCl, p<0.001); “strongly inhibited” with P.aeruginosa ATCC 27853 (peptide 12.5 µM, 200 mM NaCl versus 0 mM NaCl, p<0.001). For the same substance, the “chemotactic activity, effect of NaCl” value with monocytes (200 mM NaCl) was “comparable to that obtained at 100 mM NaCl”; with monocytes (setting [4]), “significantly increased”; in the test with neutrophils (NaCl from 100 to 150 mM, p<0.001), “significantly reduced”. Also, the “chemotactic activity compared to wild-type hBD1” value in the test with monocytes is on record as “significantly higher”; in the test on neutrophils it was “significantly lower activity”. The results for the “% of infectivity” value with HSV-1 (cell pre-exposure), in the test on HSV-1 (co-exposure) and in the test with HSV-1 (virus pre-incubation) were 14.5±2.3%, 23.4±2.5% and 45±1.5%, respectively. In addition, in the test with HSV-1 (co-exposure), the “inhibition of HSV infectivity” value turned out to be 100%.

As to “QKYYCRVRGGRCAVLSCLPKEEQIGKCSTRGRKCCRRKK [3N]”, the “antibacterial activity at 200 mM NaCl” value (in test [1] (200 mM NaCl); in test [2] (200 mM NaCl); in the test with P.aeruginosa ATCC 27853 (200 mM NaCl)) was “displayed antibacterial activity” throughout. In addition, in the test with neutrophils, the “chemotactic activity compared to wild-type hBD1” value is “comparable to that of hBD1”. The “% of infectivity” value with HSV-1 (cell pre-exposure) is 13.4±4.2%; in the test with HSV-1 (co-exposure) it was 20.4±2.4%; with HSV-1 (virus pre-incubation) it was 8.5±2.1 %. Besides, the “inhibition of HSV infectivity” value in the test on HSV-1 (co-exposure) worked out at 90%.

“DHYNCVSSGGQCLYSACPIFTKIQGTCYRGKAKCCK [hBD1 wt, wild type human beta-defensin 1, reference compound]”: the “antibacterial activity, inhibition by NaCl” value (in test [1]; in test [2]; with P.aeruginosa ATCC 27853) was “inhibited already by 50 mM NaCl” each time. Besides, the “chemotactic activity, effect of NaCl” value in the test on monocytes (200 mM NaCl) is on record as “comparable to that obtained at 100 mM NaCl”; with monocytes (setting [4]) it was “significantly increased”; with neutrophils (NaCl concentrations up to 200 mM), “did not significantly affect”. The “% of infectivity” value with HSV-1 (cell pre-exposure) is 71.3±1.2 %; in the test on HSV-1 (co-exposure) it was 74.7±2.4 %; in the test on HSV-1 (virus pre-incubation), 65.3±3.8 %.

Regarding “GIINTLQKYYCRVRGGRCAVLSCLPKEEQIGKCSTRGAKCCK [3C]”, the results for the “% of infectivity” value in the test with HSV-1 (cell pre-exposure), in the test on HSV-1 (co-exposure) and with HSV-1 (virus pre-incubation) were 50.3±3.4 %, 61.7±3.4 % and 32.4±4.3%, respectively.

Take “GIINTLQKYYCRVRGGRCAVLSCPIFTKIQGTCSTRGRKCCRRKK [3I]”: the “antibacterial activity at 200 mM NaCl” value (in test [1] (200 mM NaCl); in test [2] (200 mM NaCl); in the test on P.aeruginosa ATCC 27853 (200 mM NaCl)) was “displayed antibacterial activity” in each case. For the same substance, the “chemotactic activity compared to wild-type hBD1” value with monocytes is “comparable to that of wild-type hBD1”.

For “DHYNCVSSGGQCLYSACLPKEEQIGKCYRGKRKCCRRKK [1CI]”, the “antibacterial activity at 200 mM NaCl” value (in test [1] (200 mM NaCl); in test [2] (200 mM NaCl); in the test with P.aeruginosa ATCC 27853 (200 mM NaCl)) was “displayed antibacterial activity” each time. Besides, the “chemotactic activity compared to wild-type hBD1” value is listed as “significantly lower” in the test with monocytes and “significantly lower activity” with neutrophils.

With “DHYNCVSSGGQCLYSACLPKEEQIGKCYRGKAKCCK [1I]”, the “antibacterial activity, inhibition by NaCl” value (in test [1]; in test [2]; in the test with P.aeruginosa ATCC 27853) was “inhibited already by 50 mM NaCl” in each case. In addition, in the test on neutrophils, the “chemotactic activity compared to wild-type hBD1” value was “significantly lower activity”.

As for “GIINTLQKYYCRVRGGRCAVLSCPIFTKIQGTCSTRGAKCCK [3CI]”, the “antibacterial activity, inhibition by NaCl” value (in test [1]; in test [2]; in the test with P.aeruginosa ATCC 27853) was “inhibited already by 50 mM NaCl” in each case. For the same substance, the “antibacterial activity compared to wild-type hBD3” value (in test [1] (setting [5]); in test [2] (setting [5]); with P.aeruginosa ATCC 27853 (setting [5])) was “significantly higher” throughout. In addition, the results for the “chemotactic activity compared to wild-type hBD1” value in the test on monocytes and with neutrophils were “significantly lower” and “significantly higher”, respectively.
